Assay [1] concerns T. b. brucei Lister427 bloodstream form parasites. Kind of assay: T. b. brucei growth inhibition assay (CellTiter-Glo, 48 hours). Format: cell-based. Particulars: Trypanosoma brucei. From the text:
Bloodstream form of T. b. brucei Lister427 strain was obtained from the Genomics Institute of the Novartis Research Foundation. This strain was used for carrying out growth inhibition and kill kinetics assays. T. b. gambiense STIB930 and T. b. rhodesiense STIB900 were obtained from Swiss TPH, were used for carrying out the growth inhibition assays.
Bloodstream form T. b. brucei Lister 427 parasites were continuously passaged in HMI-9 medium formulated from IMDM medium (Invitrogen), 10% heat-inactivated fetal bovine serum (FBS), 10% Serum Plus medium supplement (SAFC Biosciences), 1 mM hypoxanthine (Sigma-Aldrich), 50 μM bathocuproine disulfonic acid (Sigma-Aldrich), 1.5 mM cysteine (Sigma-Aldrich), 1 mM pyruvic acid (Sigma-Aldrich), 39 μg/mL thymidine (Sigma-Aldrich), and 14 μL/L beta-mercapthoethanol (Sigma-Aldrich); all concentrations of added components refer to that in complete HMI-9 medium. The parasites were cultured in 10 mL of HMI-9 medium in T75 CELL-STAR tissue culture flasks at 37° C./5% CO2.
To determine compound growth inhibitory potency on T. b. brucei Lister427 bloodstream form parasites, 200 nL of 10-point, 3 fold serially diluted compounds in DMSO were transferred to the wells of white, solid bottom 384-well plates (Greiner Bio-One) by either Echo 555 acoustic liquid handling system or Mosquito. Then, 1×10^4 of T. b. brucei parasites in 40 μL of HMI-9 medium were added to each well, and the plates were incubated for 48 hours at 37° C. in 5% CO2 incubators. Parasite numbers in individual plate wells were determined through quantification of intracellular ATP amount. The CellTiter-Glo luminescent cell viability reagent (Promega) was added to plate wells, and ATP-dependent luminescence signal was measured on Tecan M1000 plate Reader after 30 min incubation. Luminescence values in wells with compounds were divided by the average luminescence value of the plate DMSO controls, and used for calculation of compound IC50 values.
Background: In ATP-based viability assays light output follows the ATP content of the culture.

Assay [2] concerns intracellular T. cruzi amastigotes. The assay is described as follows: T. cruzi amastigote growth inhibition assay (NIH 3T3 host cells, β-galactosidase readout). Format: cell-based. As to conditions: Trypanosoma cruzi, NIH3T3, read-out: (c) T.c.* IC50. Here is the method:
NIH 3T3 fibroblast cells (ATCC) were maintained in RPMI-1640 medium (Life Technologies) supplemented with 10% heat-inactivated fetal bovine serum and 100 IU penicillin/100 μg/ml streptomycin at 37° C./5% CO2. T. cruzi Tulahuen parasites constitutively expressing E. coli β-galactosidase were maintained in tissue culture as an infection in NIH 3T3 fibroblast cells. Briefly, 2×10^7 T. cruzi trypomastigotes were used to infect 6×10^5 NIH 3T3 cells growing in T75 CELLSTAR tissue culture flasks and cultured at 37° C./5% CO2 until proliferating intracellular parasites lysed host 3T3 cells and were released into the culture medium (typically 6-7 days). During the infection, the tissue culture medium was changed every two days. Number of T. cruzi trypomastigotes present in 1 ml of medium was determined using a haemocytometer.
To determine compound potency on intracellular T. cruzi amastigotes, NIH 3T3 cells were re-suspended in phenol red-free RPMI-1640 medium containing 3% heat-inactivated fetal bovine serum and 100 IU penicillin/100 μg/ml streptomycin, seeded at 1,000 cells/well (40 μl) in white, clear bottom 384-well plates (Greiner Bio-One), and incubated overnight at 37° C./5% CO2. The following day, 100 nl of each compound in DMSO were transferred to individual plate wells by Echo 555 acoustic liquid handling system. After one hour incubation, 1×10^6 of tissue culture-derived T. cruzi trypomastigotes, in 10 μl of phenol red-free RPMI-1640 medium supplemented with 3% heat-inactivated fetal bovine serum and 100 IU penicillin/100 μg/ml streptomycin were added to each well. Plates were then incubated for 6 days at 37° C./5% CO2. Intracellular T. cruzi parasites were quantified by measuring the activity of parasite-expressed β-galactosidase. Ten microliters of a chromogenic β-galactosidase substrate solution (0.6 mM chlorophenol red-β-D-galactopyranoside/0.6% NP-40 in PBS; both reagents from Calbiochem) were added to each well and incubated for 2 h at room temperature. After incubation, absorption was measured at 570 nm on SpectraMax M2 plate reader (Molecular Devices). Measured absorbance values in wells with compounds were divided by the average absorbance value of the plate DMSO controls, and used for calculation of compound EC50 values as described above.

Where only a bound is given, the exact number is not on record here.

What is called IC50 is the midpoint of a concentration-inhibition curve. For `N#Cc1ncn(CC(=O)N2Cc3ccc(-c4cccnc4C(F)F)cc3C2)n1` [Example 1, 1-(2-(5-(2-(difluoromethyl)pyridin-3-yl)isoindolin-2-yl)-2-oxoethyl)-1H-1,2,4-triazole-3-carbonitrile], the IC50 in assay [1] and in assay [2] was 100 to 1000 nM in each case.
Regarding `N#Cc1ncn(CC(=O)N2Cc3ccc(-c4c(Cl)cncc4C(F)(F)F)cc3C2)n1` [Example 2, 1-(2-(5-(3-chloro-5-(trifluoromethyl)pyridin-4-yl)isoindolin-2-yl)-2-oxoethyl)-1H-1,2,4-triazole-3-carbonitrile], the IC50 in assay [1] is 100 to 1000 nM; in assay [2] it was less than 100 nM.
The corresponding values for `N#Cc1ncn(CC(=O)N2Cc3ccc(-c4cc(F)ncc4Cl)cc3C2)n1` [Example 3, 1-(2-(5-(5-chloro-2-fluoropyridin-4-yl)isoindolin-2-yl)-2-oxoethyl)-1H-1,2,4-triazole-3-carbonitrile] are less than 100 nM and less than 100 nM.
The like results for `N#Cc1ncn(CC(=O)N2Cc3ccc(-c4cccc(Cl)c4C(F)(F)F)cc3C2)n1` [Example 4, 1-(2-(5-(3-chloro-2-(trifluoromethyl)phenyl)isoindolin-2-yl)-2-oxoethyl)-1H-1,2,4-triazole-3-carbonitrile] were, in that order, less than 100 nM and less than 100 nM.
The like results for `N#Cc1ncn(CC(=O)N2Cc3ccc(-c4cccnc4OCC(F)(F)F)cc3C2)n1` [Example 5, 1-(2-oxo-2-(5-(2-(2,2,2-trifluoroethoxy)pyridin-3-yl)isoindolin-2-yl)ethyl)-1H-1,2,4-triazole-3-carbonitrile] were, in that order, 100 to 1000 nM and 100 to 1000 nM.
In the case of `Cc1ccc(-c2ccc3c(c2)CN(C(=O)Cn2cnc(C#N)n2)C3)c(C(F)(F)F)n1` [Example 6, 1-(2-(5-(6-methyl-2-(trifluoromethyl)pyridin-3-yl)isoindolin-2-yl)-2-oxoethyl)-1H-1,2,4-triazole-3-carbonitrile], the concentration for half-maximal inhibition (IC50) in assay [1] and in assay [2] was less than 100 nM in each case.
Take `N#Cc1ncn(CC(=O)N2Cc3ccc(-c4c(C(F)(F)F)ccnc4Cl)cc3C2)n1` [Example 7, 1-(2-(5-(2-chloro-4-(trifluoromethyl)pyridin-3-yl)isoindolin-2-yl)-2-oxoethyl)-1H-1,2,4-triazole-3-carbonitrile]: the concentration for half-maximal inhibition (IC50) in assay [1] is 100 to 1000 nM; in assay [2], less than 100 nM.
Take `N#Cc1ncn(CC(=O)N2Cc3ccc(-c4cncc(F)c4C(F)(F)F)cc3C2)n1` [Example 9, 1-(2-(5-(5-fluoro-4-(trifluoromethyl)pyridin-3-yl)isoindolin-2-yl)-2-oxoethyl)-1H-1,2,4-triazole-3-carbonitrile]: the IC50 in assay [1] and in assay [2] was 100 to 1000 nM in each case.
For the compound `N#Cc1ncn(CC(=O)N2Cc3ccc(-c4c(F)cc(F)cc4Cl)cc3C2)n1` [Example 10, 1-(2-(5-(2-chloro-4,6-difluorophenyl)isoindolin-2-yl)-2-oxoethyl)-1H-1,2,4-triazole-3-carbonitrile], the IC50 in assay [1] and in assay [2] was less than 100 nM in each case.
Consider `N#Cc1ncn(CC(=O)N2Cc3ccc(-c4ccc(F)cc4N4CCCC4)cc3C2)n1` [Example 11, 1-(2-(5-(4-fluoro-2-(pyrrolidin-1-yl)phenyl)isoindolin-2-yl)-2-oxoethyl)-1H-1,2,4-triazole-3-carbonitrile], for which the IC50 in assay [1] and in assay [2] was 100 to 1000 nM throughout.
For `N#Cc1ncn(CC(=O)N2Cc3ccc(-c4c(F)cccc4C(F)(F)F)cc3C2)n1` [Example 12, 1-(2-(5-(2-fluoro-6-(trifluoromethyl)phenyl)isoindolin-2-yl)-2-oxoethyl)-1H-1,2,4-triazole-3-carbonitrile], the half-maximal inhibitory concentration (IC50) in assay [1] and in assay [2] was less than 100 nM in each case.
With `Cc1ncccc1-c1ccc2c(c1)CN(C(=O)Cn1cnc(C#N)n1)C2` [Example 13, 1-(2-(5-(2-methylpyridin-3-yl)isoindolin-2-yl)-2-oxoethyl)-1H-1,2,4-triazole-3-carbonitrile], the half-inhibitory concentration (IC50) in assay [1] and in assay [2] was 100 to 1000 nM each time.
Consider `COc1ccc(-c2ccc3c(c2)CN(C(=O)Cn2cnc(C#N)n2)C3)c(C(F)(F)F)n1` [Example 14, 1-(2-(5-(6-methoxy-2-(trifluoromethyl)pyridin-3-yl)isoindolin-2-yl)-2-oxoethyl)-1H-1,2,4-triazole-3-carbonitrile], for which the half-inhibitory concentration (IC50) in assay [1] is 100 to 1000 nM; in assay [2] it was less than 100 nM.
The corresponding values for `N#Cc1ncn(CC(=O)N2Cc3ccc(-c4c(F)ccc(F)c4Cl)cc3C2)n1` [Example 15, 1-(2-(5-(2-chloro-3,6-difluorophenyl)isoindolin-2-yl)-2-oxoethyl)-1H-1,2,4-triazole-3-carbonitrile] are less than 100 nM and less than 100 nM.
For the compound `N#Cc1ncn(CC(=O)N2Cc3ccc(-c4c(F)cncc4C(F)(F)F)cc3C2)n1` [Example 16, 1-(2-(5-(3-fluoro-5-(trifluoromethyl)pyridin-4-yl)isoindolin-2-yl)-2-oxoethyl)-1H-1,2,4-triazole-3-carbonitrile], the IC50 was 100 to 1000 nM in assay [1] and less than 100 nM in assay [2].
The like results for `N#Cc1ncn(CC(=O)N2Cc3ccc(-c4cccnc4OC(F)(F)F)cc3C2)n1` [Example 17, 1-(2-oxo-2-(5-(2-(trifluoromethoxy)pyridin-3-yl)isoindolin-2-yl)ethyl)-1H-1,2,4-triazole-3-carbonitrile] were, in that order, 100 to 1000 nM and 100 to 1000 nM.
The like results for `N#Cc1ncn(CC(=O)N2Cc3ccc(-c4c(Cl)ccnc4C(F)(F)F)cc3C2)n1` [Example 18, 1-(2-(5-(4-chloro-2-(trifluoromethyl)pyridin-3-yl)isoindolin-2-yl)-2-oxoethyl)-1H-1,2,4-triazole-3-carbonitrile] were, in that order, 100 to 1000 nM and less than 100 nM.
The like results for `N#Cc1ncn(CC(=O)N2Cc3ccc(-c4cccnc4CC(F)(F)F)cc3C2)n1` [Example 19, 1-(2-oxo-2-(5-(2-(2,2,2-trifluoroethyl)pyridin-3-yl)isoindolin-2-yl)ethyl)-1H-1,2,4-triazole-3-carbonitrile] were, in that order, 100 to 1000 nM and 100 to 1000 nM.
`N#Cc1ncn(CC(=O)N2Cc3ccc(-c4c(F)ccnc4C(F)(F)F)cc3C2)n1` [Example 20, 1-(2-(5-(4-fluoro-2-(trifluoromethyl)pyridin-3-yl)isoindolin-2-yl)-2-oxoethyl)-1H-1,2,4-triazole-3-carbonitrile]: the IC50 in assay [1] and in assay [2] was less than 100 nM in each case.
As to `N#Cc1ncn(CC(=O)N2Cc3ccc(-c4c(F)ccnc4Cl)cc3C2)n1` [Example 21, 1-(2-(5-(2-chloro-4-fluoropyridin-3-yl)isoindolin-2-yl)-2-oxoethyl)-1H-1,2,4-triazole-3-carbonitrile], the IC50 in assay [1] is 100 to 1000 nM; in assay [2], less than 100 nM.
The like results for `N#Cc1ncn(CC(=O)N2Cc3ccc(-c4c(C(F)(F)F)ccnc4F)cc3C2)n1` [Example 22, 1-(2-(5-(2-fluoro-4-(trifluoromethyl)pyridin-3-yl)isoindolin-2-yl)-2-oxoethyl)-1H-1,2,4-triazole-3-carbonitrile] were, in that order, 100 to 1000 nM and less than 100 nM.
Compound `N#Cc1ncn(CC(=O)N2Cc3ccc(-c4ccc(OC(F)(F)F)cc4)cc3C2)n1` [Example 83, 1-(2-oxo-2-(5-(4-(trifluoromethoxy)phenyl)isoindolin-2-yl)ethyl)-1H-1,2,4-triazole-3-carbonitrile] showed an IC50 in assay [1] of no less than 1000 nM.
